Patent US20020173538A1, “Method for sensitizing cancer cells to cancer therapies with a mevalonate-reducing compound” (priority 2000, published 2002)
Like-named read-outs stand apart in the source and are kept apart here. Marks after values point to notes of the source that are not given here.

Test system: Hep 3B cells
Test: MTT cell viability assay, Hep 3B cells (serum-free DMEM)
Settings: for viability at 0.005 µM / viability at 0.01 µM / viability at 0.02 µM / viability at 0.05 µM / viability at 0.1 µM / viability at 0.2 µM / viability at 0.5 µM / viability at 1 µM / IC50 / viability at 0.002 µM: Homo sapiens, Hep3B
[1] = no lovastatin 48 hr, then taxol 10 nM 48 hr
[2] = no lovastatin 72 hr, then taxol 2 nM 72 hr
[3] = no lovastatin 72 hr, then taxol 5 nM 48 hr
[4] = no lovastatin 72 hr, then taxol 5 nM 72 hr
[5] = no lovastatin 72 hr, then taxol 10 nM 72 hr

Work on CC(=O)O[C@H]1C(=O)[C@@]2(C)[C@H]([C@H](OC(=O)c3ccccc3)[C@]3(O)C[C@H](OC(=O)[C@H](O)[C@@H](NC(=O)c4ccccc4)c4ccccc4)C(C)=C1C3(C)C)[C@]1(OC(C)=O)CO[C@@H]1C[C@@H]2O [Taxol, paclitaxel] yielded a viability at 0.005 µM (48 h, read-out: Cell viability, taxol 5 nM, 48 hr) of 91.6 ± 0.5%, a viability at 0.005 µM (48 h, read-out: Cell viability, taxol 5 nM, 48 hr, Table 9) of 97.5 ± 3.1% and a viability at 0.01 µM (48 h, read-out: Cell viability, taxol 10 nM, 48 hr) of 87.1 ± 1.5%. The viability at 0.01 µM (48 h, read-out: Cell viability, taxol 10 nM, 48 hr, Table 9) was 89.1 ± 3%, the viability at 0.02 µM (48 h, read-out: Cell viability, taxol 20 nM, 48 hr) was 85.4 ± 0.9% and the viability at 0.05 µM (48 h, read-out: Cell viability, taxol 50 nM, 48 hr) was 83.5 ± 0.9%. For the same compound, the viability at 0.1 µM (48 h, read-out: Cell viability, taxol 100 nM, 48 hr) was 74.9 ± 1.8%, the viability at 0.2 µM (48 h, read-out: Cell viability, taxol 200 nM, 48 hr) was 64.7 ± 4.6% and the viability at 0.5 µM (48 h, read-out: Cell viability, taxol 500 nM, 48 hr) was 56.2 ± 0.8%. The viability at 1 µM (48 h, read-out: Cell viability, taxol 1000 nM, 48 hr) was 55.3 ± 0.5%, the IC50 (48 h, read-out: IC50 (cell viability), 48 hr, Table 8) was 1.119 ± 0.0101 µM and the IC50 (48 h, read-out: IC50 (cell viability), 48 hr, Table 9) was 0.0459 µM. For the same compound, the viability at 0.002 µM (72 h, read-out: Cell viability, taxol 2 nM, 72 hr) was 94 ± 3.6%, the viability at 0.002 µM (72 h, read-out: Cell viability, taxol 2 nM, 72 hr, Table 9) was 94 ± 3.6% and the viability at 0.005 µM (72 h, read-out: Cell viability, taxol 5 nM, 72 hr) was 91.7 ± 3.7%. It also gave a viability at 0.005 µM (72 h, read-out: Cell viability, taxol 5 nM, 72 hr, Table 9) of 91.7 ± 3.7%, a viability at 0.01 µM (72 h, read-out: Cell viability, taxol 10 nM, 72 hr) of 88.5 ± 2.4% and a viability at 0.01 µM (72 h, read-out: Cell viability, taxol 10 nM, 72 hr, Table 9) of 88.5 ± 2.4%. The viability at 0.02 µM (72 h, read-out: Cell viability, taxol 20 nM, 72 hr) was 85.6 ± 1.1%, the viability at 0.05 µM (72 h, read-out: Cell viability, taxol 50 nM, 72 hr) was 71.2 ± 4.2% and the viability at 0.1 µM (72 h, read-out: Cell viability, taxol 100 nM, 72 hr) was 52.7 ± 2.8%. The viability at 0.2 µM (72 h, read-out: Cell viability, taxol 200 nM, 72 hr) was 47 ± 1%, the viability at 0.5 µM (72 h, read-out: Cell viability, taxol 500 nM, 72 hr) was 32.2 ± 4.7% and the viability at 1 µM (72 h, read-out: Cell viability, taxol 1000 nM, 72 hr) was 24.6 ± 2.9%. It also gave an IC50 (72 h, read-out: IC50 (cell viability), 72 hr, Table 8) of 0.147 ± 0.0142 µM, an IC50 (72 h, read-out: IC50 (cell viability), 72 hr, Table 9) of 0.0435 µM and a viability at 0.002 µM (96 h, read-out: Cell viability, taxol 2 nM alone, 96 hr, Table 10) of 92.6 ± 1.9%. The viability at 0.002 µM (96 h, read-out: Cell viability, taxol 2 nM, 96 hr) was 94.1 ± 7.9%, the viability at 0.005 µM (96 h, read-out: Cell viability, taxol 5 nM alone, 96 hr, Table 10) was 79.5 ± 4.6% and the viability at 0.005 µM (96 h, read-out: Cell viability, taxol 5 nM, 96 hr) was 92.4 ± 4.8%. For the same compound, the viability at 0.01 µM (96 h, read-out: Cell viability, taxol 10 nM alone, 96 hr, Table 10) was 60.3 ± 3.4%, the viability at 0.01 µM (96 h, read-out: Cell viability, taxol 10 nM, 96 hr) was 82.3 ± 6.6% and the IC50 (96 h, read-out: IC50 (cell viability), 96 hr) was 0.0282 µM. It also gave a viability at 0.002 µM (120 h, read-out: Cell viability, taxol 2 nM, 120 hr) of 94.2 ± 2.5%, a viability at 0.005 µM (120 h, read-out: Cell viability, taxol 5 nM, 120 hr) of 82.7 ± 3.7% and a viability at 0.01 µM (120 h, read-out: Cell viability, taxol 10 nM, 120 hr) of 71.9 ± 4.6%. The IC50 (120 h, read-out: IC50 (cell viability), 120 hr) was 0.0178 µM, the Cell viability (no lovastatin 48 hr, then taxol 2 nM 48 hr) was 102.4 ± 4.7^a % of control and the “Ratio, inhibition (%) Hep 3B/inhibition (%) Hep G2” value (“Ratio, inhibition … (%) Hep G2” for short) (no lovastatin 48 hr, then taxol 5 nM 48 hr) was 0.3***. For the same compound, the Cell viability [1] was 76.3 ± 1.3^c % of control, the “Ratio, inhibition … (%) Hep G2” value [1] was 0.6*** and the “Ratio, inhibition … (%) Hep G2” value (no lovastatin 72 hr, then taxol 2 nM 48 hr) was 0.4***. For the same compound, the Cell viability [2] was 91.1 ± 1.1^b % of control, the “Ratio, inhibition … (%) Hep G2” value [2] was 0.4* and the Cell viability [3] was 86.9 ± 1.3^b % of control. The “Ratio, inhibition … (%) Hep G2” value [3] was 0.4***, the Cell viability [4] was 96.5 ± 0.6^a % of control and the “Ratio, inhibition … (%) Hep G2” value [4] was 0.1***. For the same compound, the “Ratio, inhibition … (%) Hep G2” value (no lovastatin 72 hr, then taxol 10 nM 48 hr) was 0.4**, the Cell viability [5] was 78.0 ± 0.4^c % of control and the “Ratio, inhibition … (%) Hep G2” value [5] was 0.6**. For the same compound, the “Ratio, inhibition … (%) Hep G2” value (taxol 2 nM alone, 96 hr, Table 10) was 0.3**, the “Ratio, inhibition … (%) Hep G2” value (taxol 2 nM, 48 hr) was 1.3* and the “Ratio, inhibition … (%) Hep G2” value (taxol 2 nM, 72 hr) was 0.6*. For the same compound, the “Ratio, inhibition … (%) Hep G2” value (taxol 5 nM alone, 96 hr, Table 10) was 0.4**, the “Ratio, inhibition … (%) Hep G2” value (taxol 5 nM, 48 hr) was 0.3** and the “Ratio, inhibition … (%) Hep G2” value (taxol 5 nM, 72 hr) was 0.2**. For the same compound, the “Ratio, inhibition … (%) Hep G2” value (taxol 10 nM alone, 96 hr, Table 10) was 0.5***, the “Ratio, inhibition … (%) Hep G2” value (taxol 10 nM, 48 hr) was 0.4*** and the “Ratio, inhibition … (%) Hep G2” value (taxol 10 nM, 72 hr) was 0.2***. For the same compound, the “Ratio, inhibition … (%) Hep G2” value (taxol 20 nM, 48 hr) was 0.3***, the “Ratio, inhibition … (%) Hep G2” value (taxol 20 nM, 72 hr) was 0.2*** and the “Ratio, inhibition … (%) Hep G2” value (taxol 50 nM, 48 hr) was 0.3***. For the same compound, the “Ratio, inhibition … (%) Hep G2” value (taxol 50 nM, 72 hr) was 0.4***, the “Ratio, inhibition … (%) Hep G2” value (taxol 100 nM, 48 hr) was 0.4** and the “Ratio, inhibition … (%) Hep G2” value (taxol 100 nM, 72 hr) was 0.6**. The “Ratio, inhibition … (%) Hep G2” value (taxol 200 nM, 48 hr) was 0.5**, the “Ratio, inhibition … (%) Hep G2” value (taxol 200 nM, 72 hr) was 0.6** and the “Ratio, inhibition … (%) Hep G2” value (taxol 500 nM, 48 hr) was 0.6**. For the same compound, the “Ratio, inhibition … (%) Hep G2” value (taxol 500 nM, 72 hr) was 0.8**, the “Ratio, inhibition … (%) Hep G2” value (taxol 1000 nM, 48 hr) was 0.5** and the “Ratio, inhibition … (%) Hep G2” value (taxol 1000 nM, 72 hr) was 0.8**.
